In patent publication US20210254272A1, “TEXTILES HAVING ANTIMICROBIAL PROPERTIES” (Livinguard AG, priority 2015, published 2021):

Test: Leaching test: 100 g fabric soaked in 10 liters stagnant distilled water, 3 days (72 hours)
Assay type: physicochemical
Settings: for Leaching of active ingredients / Leaching Test-Leaching of active ingredients: pad process; for Leaching of active ingredients: cured 180° C. 2 min; for Leaching Test-Leaching of active ingredients: 2 min
Description: The test procedure for leaching was as follows: 100 g (grams) of fabric as well as control fabrics were soaked in 10 liters of stagnant distilled water in a closed wide mouth jar. After 3 days (72 hours), the water samples were tested for leached substances as per standard analytical methods.
The test procedure for leaching was as follows: 100 g (grams) of fabric as well as control fabrics were soaked in 10 liters of stagnant distilled water in a closed wide mouth jar. After 3 days (72 hours), the water samples were tested for leached substances as per standard analytical methods. A weight of 100 g fabric was chosen because in the preferred embodiment of the water filter as described further below, each filter comprises a strip of fabric with 210 g/m^2, 3 meters long and 0.16 meters wide, which corresponds to 100 g of fabric.

## Silver
Exhaust 80° C., 60 min, dosage 1% o.w.f (test up to 5% o.w.f)
  Leaching of active ingredients (in ppm): 3.5 ppm
Exhaust 80° C., 60 min, dosage 2% o.w.f
  Leaching of active ingredients (in ppm): 19 ppm
Exhaust 80° C., 60 min, dosage 3% o.w.f
  Leaching of active ingredients (in ppm): 36 ppm
Exhaust 80° C., 60 min, dosage 4% o.w.f
  Leaching of active ingredients (in ppm): 41 ppm
Exhaust 80° C., 60 min, dosage 5% o.w.f
  Leaching of active ingredients (in ppm): 69 ppm
Exhaust 80 ° C., solution dosage 1% o.w.f, process time 10 min
  Leaching of active ingredients (in ppm): 50 ppm
Exhaust 80 ° C., solution dosage 1% o.w.f, process time 20 min
  Leaching of active ingredients (in ppm): 37 ppm
Exhaust 80 ° C., solution dosage 1% o.w.f, process time 30 min
  Leaching of active ingredients (in ppm): 28 ppm
Exhaust 80 ° C., solution dosage 1% o.w.f, process time 40 min
  Leaching of active ingredients (in ppm): 22 ppm
Exhaust 80 ° C., solution dosage 1% o.w.f, process time 50 min
  Leaching of active ingredients (in ppm): 19 ppm
Exhaust 80 ° C., solution dosage 1% o.w.f, process time 55 min
  Leaching of active ingredients (in ppm): 8 ppm
Exhaust 80 ° C., solution dosage 1% o.w.f, process time 60 min
  Leaching of active ingredients (in ppm): 4 ppm
Exhaust 80 ° C., solution dosage 1% o.w.f, process time 70 min
  Leaching of active ingredients (in ppm): 4 ppm
Exhaust 80 ° C., solution dosage 1% o.w.f, process time 80 min
  Leaching of active ingredients (in ppm): 3 ppm
Exhaust 80 ° C., solution dosage 1% o.w.f, process time 90 min
  Leaching of active ingredients (in ppm): 8 ppm
From Experimental examples I.1 and I.4
  limit on the quantity of the agent that can be adhered to the textile in a non-leaching or substantially non-leaching manner: about 0.01 % o.w.f.
Mixture 1 gm/lit each
  Leaching of active ingredients: 12 ppm
Mixture 1 gm/lit each, after Washing
  Leaching of active ingredients: 0.4 ppm
Mixture 5 gm/lit each
  Leaching of active ingredients: 28 ppm
Mixture 5 gm/lit each, after Washing
  Leaching of active ingredients: 0.6 ppm
Mixture 10 gm/lit each
  Leaching of active ingredients: 38 ppm
Mixture 10 gm/lit each, after Washing
  Leaching of active ingredients: 1.0 ppm
Single agent 5 gm/lit, curing 120° C.
  Leaching Test-Leaching of active ingredients: 9 ppm
Single agent 5 gm/lit, curing 140° C.
  Leaching Test-Leaching of active ingredients: 5 ppm
Single agent 5 gm/lit, curing 150° C.
  Leaching Test-Leaching of active ingredients: 3 ppm
Single agent 5 gm/lit, curing 160° C.
  Leaching Test-Leaching of active ingredients: 2 ppm
Single agent 5 gm/lit, curing 180° C.
  Leaching Test-Leaching of active ingredients: 1 ppm
Single agent 10 gm/lit, curing 120° C.
  Leaching Test-Leaching of active ingredients: 16 ppm
Single agent 10 gm/lit, curing 140° C.
  Leaching Test-Leaching of active ingredients: 15 ppm
Single agent 10 gm/lit, curing 150° C.
  Leaching Test-Leaching of active ingredients: 12 ppm
Single agent 10 gm/lit, curing 160° C.
  Leaching Test-Leaching of active ingredients: 9 ppm
Single agent 10 gm/lit, curing 180° C.
  Leaching Test-Leaching of active ingredients: 2 ppm
Solution dosage 0.10% o.w.f, exhaust temperature 40° C., process time 60 min
  Leaching of active ingredient (in ppm): 0 ppm
Solution dosage 0.10% o.w.f, exhaust temperature 60° C., process time 60 min
  Leaching of active ingredient (in ppm): 0 ppm
Solution dosage 0.10% o.w.f, exhaust temperature 65° C., process time 60 min
  Leaching of active ingredient (in ppm): 0 ppm
Solution dosage 0.10% o.w.f, exhaust temperature 70° C., process time 60 min
  Leaching of active ingredient (in ppm): 0 ppm
Solution dosage 0.10% o.w.f, exhaust temperature 75° C., process time 60 min
  Leaching of active ingredient (in ppm): 0 ppm
Solution dosage 0.10% o.w.f, exhaust temperature 80° C., process time 60 min
  Leaching of active ingredient (in ppm): 0 ppm
Solution dosage 0.10% o.w.f, exhaust temperature 85° C., process time 60 min
  Leaching of active ingredient (in ppm): 2 ppm
Solution dosage 0.10% o.w.f, exhaust temperature 90° C., process time 60 min
  Leaching of active ingredient (in ppm): 2 ppm
Solution dosage 0.10% o.w.f, exhaust temperature 95° C., process time 60 min
  Leaching of active ingredient (in ppm): 2 ppm
Solution dosage 0.20% o.w.f, exhaust temperature 40° C., process time 60 min
  Leaching of active ingredient (in ppm): 0 ppm
Solution dosage 0.20% o.w.f, exhaust temperature 60° C., process time 60 min
  Leaching of active ingredient (in ppm): 0 ppm
Solution dosage 0.20% o.w.f, exhaust temperature 65° C., process time 60 min
  Leaching of active ingredient (in ppm): 0 ppm
Solution dosage 0.20% o.w.f, exhaust temperature 70° C., process time 60 min
  Leaching of active ingredient (in ppm): 0 ppm
Solution dosage 0.20% o.w.f, exhaust temperature 75° C., process time 60 min
  Leaching of active ingredient (in ppm): 0 ppm
Solution dosage 0.20% o.w.f, exhaust temperature 80° C., process time 60 min
  Leaching of active ingredient (in ppm): 0 ppm
Solution dosage 0.20% o.w.f, exhaust temperature 85° C., process time 60 min
  Leaching of active ingredient (in ppm): 4 ppm
Solution dosage 0.20% o.w.f, exhaust temperature 90° C., process time 60 min
  Leaching of active ingredient (in ppm): 4 ppm
Solution dosage 0.20% o.w.f, exhaust temperature 95° C., process time 60 min
  Leaching of active ingredient (in ppm): 4 ppm
Solution dosage 0.50% o.w.f, exhaust temperature 40° C., process time 60 min
  Leaching of active ingredient (in ppm): 0 ppm
Solution dosage 0.50% o.w.f, exhaust temperature 60° C., process time 60 min
  Leaching of active ingredient (in ppm): 3 ppm
Solution dosage 0.50% o.w.f, exhaust temperature 65° C., process time 60 min
  Leaching of active ingredient (in ppm): 2 ppm
Solution dosage 0.50% o.w.f, exhaust temperature 70° C., process time 60 min
  Leaching of active ingredient (in ppm): 1 ppm
Solution dosage 0.50% o.w.f, exhaust temperature 75° C., process time 60 min
  Leaching of active ingredient (in ppm): 1 ppm
Solution dosage 0.50% o.w.f, exhaust temperature 80° C., process time 60 min
  Leaching of active ingredient (in ppm): 1 ppm
Solution dosage 0.50% o.w.f, exhaust temperature 85° C., process time 60 min
  Leaching of active ingredient (in ppm): 5 ppm
Solution dosage 0.50% o.w.f, exhaust temperature 90° C., process time 60 min
  Leaching of active ingredient (in ppm): 7 ppm
Solution dosage 0.50% o.w.f, exhaust temperature 95° C., process time 60 min
  Leaching of active ingredient (in ppm): 8 ppm
Solution dosage 0.80% o.w.f, exhaust temperature 40° C., process time 60 min
  Leaching of active ingredient (in ppm): 0 ppm
Solution dosage 0.80% o.w.f, exhaust temperature 60° C., process time 60 min
  Leaching of active ingredient (in ppm): 4 ppm
Solution dosage 0.80% o.w.f, exhaust temperature 65° C., process time 60 min
  Leaching of active ingredient (in ppm): 3 ppm
Solution dosage 0.80% o.w.f, exhaust temperature 70° C., process time 60 min
  Leaching of active ingredient (in ppm): 2 ppm
Solution dosage 0.80% o.w.f, exhaust temperature 75° C., process time 60 min
  Leaching of active ingredient (in ppm): 3 ppm
Solution dosage 0.80% o.w.f, exhaust temperature 80° C., process time 60 min
  Leaching of active ingredient (in ppm): 1 ppm
Solution dosage 0.80% o.w.f, exhaust temperature 85° C., process time 60 min
  Leaching of active ingredient (in ppm): 7 ppm
Solution dosage 0.80% o.w.f, exhaust temperature 90° C., process time 60 min
  Leaching of active ingredient (in ppm): 7 ppm
Solution dosage 0.80% o.w.f, exhaust temperature 95° C., process time 60 min
  Leaching of active ingredient (in ppm): 8 ppm
Solution dosage 1.00% o.w.f, exhaust temperature 40° C., process time 60 min
  Leaching of active ingredient (in ppm): 0 ppm
Solution dosage 1.00% o.w.f, exhaust temperature 60° C., process time 60 min
  Leaching of active ingredient (in ppm): 7 ppm
Solution dosage 1.00% o.w.f, exhaust temperature 65° C., process time 60 min
  Leaching of active ingredient (in ppm): 7 ppm
Solution dosage 1.00% o.w.f, exhaust temperature 70° C., process time 60 min
  Leaching of active ingredient (in ppm): 3 ppm
Solution dosage 1.00% o.w.f, exhaust temperature 75° C., process time 60 min
  Leaching of active ingredient (in ppm): 4 ppm
Solution dosage 1.00% o.w.f, exhaust temperature 80° C., process time 60 min
  Leaching of active ingredient (in ppm): 1 ppm
Solution dosage 1.00% o.w.f, exhaust temperature 85° C., process time 60 min
  Leaching of active ingredient (in ppm): 8 ppm
Solution dosage 1.00% o.w.f, exhaust temperature 90° C., process time 60 min
  Leaching of active ingredient (in ppm): 9 ppm
Solution dosage 1.00% o.w.f, exhaust temperature 95° C., process time 60 min
  Leaching of active ingredient (in ppm): 10 ppm
